In one experiment the target is T1, human PI3Kα protein (Homo sapiens, UniProt P42336).
T1 construct: purchased Carna Biosciences, Inc; host or cells: baculovirus expression system
Description: PI3Kα enzyme assay (ADP-Glo). The experiment is classed as biochemical. The following applies: read-out: PI3Kα enzyme inhibitory activity. The method, boiled down: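 Biotinylated human PI3Kα (baculovirus-expressed, 4.5 nmol/L) pre-incubated 15 min with compound in Tris-HCl pH 7.5, MgCl2, BSA; reaction 60 min at 25° C with 50 μmol/L PIP2 and 100 μmol/L ATP final. ADP quantified by ADP-Glo luminescence; IC50 calculated.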
(In general: ADP-Glo turns the ADP formed in a reaction into a luminescent signal.)

Experiment [1] addresses T2, GST fusion human ERK2 protein (Homo sapiens, UniProt P28482).
T2 construct: purchased Carna Biosciences, Inc; host or cells: E. coli expression system
The experiment is described as follows: ERK2 enzyme assay (2). The experiment is classed as biochemical. The following applies: ERK2 enzyme assay (2); read-out: ERK2 enzyme inhibitory activity (2). The method, boiled down: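 GST-tagged human ERK2 expressed in E. coli (1.25 nmol/L) was preincubated with compound for 15 min at room temperature in pH 7.5 Hepes buffer with MgCl2, DTT and Brij35. Reaction with FL-Peptide 8 (final 4.25 μmol/L) and ATP (final 1 mmol/L) ran 120 min at 25 °C; EDTA stopped it, and phosphorylated peptide was quantified by mobility-shift separation to derive IC50.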

Our source for the IC50 values is US9783536B2, “Nitrogen-containing heterocyclic compound or salt thereof” (FUJIFILM Corporation, priority 2013, dated 2017).

T1 sequence (P42336 whole entry): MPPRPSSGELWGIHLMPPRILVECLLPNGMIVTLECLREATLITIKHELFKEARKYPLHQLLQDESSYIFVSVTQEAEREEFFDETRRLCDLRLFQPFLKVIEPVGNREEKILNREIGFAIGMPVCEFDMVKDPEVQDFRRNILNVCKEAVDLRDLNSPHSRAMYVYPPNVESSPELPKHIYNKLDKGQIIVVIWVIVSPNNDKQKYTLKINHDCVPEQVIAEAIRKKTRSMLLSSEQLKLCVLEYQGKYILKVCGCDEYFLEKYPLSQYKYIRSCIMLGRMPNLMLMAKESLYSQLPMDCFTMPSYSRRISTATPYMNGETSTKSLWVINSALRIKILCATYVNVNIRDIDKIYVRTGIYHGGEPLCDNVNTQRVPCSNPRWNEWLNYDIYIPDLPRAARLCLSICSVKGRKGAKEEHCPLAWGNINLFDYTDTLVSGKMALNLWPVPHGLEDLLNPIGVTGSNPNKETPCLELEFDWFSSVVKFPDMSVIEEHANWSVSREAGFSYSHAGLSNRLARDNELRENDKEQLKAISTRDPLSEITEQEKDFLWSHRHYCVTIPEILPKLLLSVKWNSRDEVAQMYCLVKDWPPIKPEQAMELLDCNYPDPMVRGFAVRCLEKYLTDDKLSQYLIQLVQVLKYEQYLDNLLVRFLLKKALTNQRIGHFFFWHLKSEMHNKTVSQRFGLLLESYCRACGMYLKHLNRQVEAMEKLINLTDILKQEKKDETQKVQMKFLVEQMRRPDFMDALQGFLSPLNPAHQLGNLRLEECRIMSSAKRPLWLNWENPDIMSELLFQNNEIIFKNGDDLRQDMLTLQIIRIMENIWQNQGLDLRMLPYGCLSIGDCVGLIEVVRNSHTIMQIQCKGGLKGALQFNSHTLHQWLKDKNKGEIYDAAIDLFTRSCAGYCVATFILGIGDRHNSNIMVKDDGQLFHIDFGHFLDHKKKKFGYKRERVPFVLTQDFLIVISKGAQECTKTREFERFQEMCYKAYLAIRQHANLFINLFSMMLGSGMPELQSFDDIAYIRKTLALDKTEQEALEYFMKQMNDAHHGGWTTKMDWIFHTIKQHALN
T1 sequence (P27986 whole entry partner): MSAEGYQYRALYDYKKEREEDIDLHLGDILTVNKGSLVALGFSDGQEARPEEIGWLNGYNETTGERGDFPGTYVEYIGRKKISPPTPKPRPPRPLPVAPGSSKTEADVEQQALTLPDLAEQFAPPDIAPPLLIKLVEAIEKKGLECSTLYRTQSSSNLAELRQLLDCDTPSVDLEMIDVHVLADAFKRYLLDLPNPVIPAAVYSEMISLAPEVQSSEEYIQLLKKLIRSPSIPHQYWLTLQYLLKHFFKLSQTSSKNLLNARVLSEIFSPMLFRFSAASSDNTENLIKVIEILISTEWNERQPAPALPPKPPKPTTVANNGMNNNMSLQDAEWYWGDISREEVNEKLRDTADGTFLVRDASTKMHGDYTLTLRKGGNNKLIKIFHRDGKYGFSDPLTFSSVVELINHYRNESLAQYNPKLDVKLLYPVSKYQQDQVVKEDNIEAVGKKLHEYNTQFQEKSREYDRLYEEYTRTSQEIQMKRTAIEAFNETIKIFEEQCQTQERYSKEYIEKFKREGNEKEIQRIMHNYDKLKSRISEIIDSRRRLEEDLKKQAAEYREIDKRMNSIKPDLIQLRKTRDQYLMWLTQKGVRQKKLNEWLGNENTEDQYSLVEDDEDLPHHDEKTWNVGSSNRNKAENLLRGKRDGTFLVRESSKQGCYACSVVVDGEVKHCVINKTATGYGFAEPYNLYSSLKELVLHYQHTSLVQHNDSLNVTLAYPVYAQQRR
T2 sequence (P28482 whole entry, the tested form may be a part): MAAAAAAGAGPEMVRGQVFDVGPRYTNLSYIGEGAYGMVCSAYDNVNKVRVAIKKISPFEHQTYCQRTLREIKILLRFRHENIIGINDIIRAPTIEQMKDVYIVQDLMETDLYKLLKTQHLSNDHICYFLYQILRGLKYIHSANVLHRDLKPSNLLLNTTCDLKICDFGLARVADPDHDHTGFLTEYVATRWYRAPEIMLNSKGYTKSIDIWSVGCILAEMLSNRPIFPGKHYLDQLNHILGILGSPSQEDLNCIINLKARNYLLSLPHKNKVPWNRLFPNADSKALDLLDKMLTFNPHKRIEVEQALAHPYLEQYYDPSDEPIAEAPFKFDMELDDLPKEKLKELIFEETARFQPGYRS

With `CC(=O)N1CCC(Cn2cc(-c3cnc4ccc(Nc5cc(C(C)C)cnn5)nc4c3)cn2)CC1` [Example 0528, 1-(4-((4-(6-((5-Isopropylpyridazin-3-yl)amino)-1,5-naphthyridin-3-yl)-1H-pyrazol-1-yl)methyl)piperidin-1-yl)ethanone], the IC50 (on human PI3Kα protein; in experiment [1]) was less than 1 µM in each case.

As to `CC(C)c1cnnc(Nc2ccc3ncc(-c4cnn(CC5CCN(C(=O)N(C)C)CC5)c4)cc3n2)c1` [Example 0529], the IC50 (on human PI3Kα protein; in experiment [1]) was less than 1 µM in each case.

Turning to `CCN(CC)C(=O)N1CCC(Cn2cc(-c3cnc4ccc(Nc5cc(C(C)C)cnn5)nc4c3)cn2)CC1` [Example 0531], the IC50 (at human PI3Kα protein; in experiment [1]) was less than 1 µM in each case.

With `CC(C)c1cnnc(Nc2ccc3ncc(-c4cnn(CC5CCN(C(=O)N6CCOCC6)CC5)c4)cc3n2)c1` [Example 0532], the IC50 (on human PI3Kα protein; in experiment [1]) was less than 1 µM throughout.

For `CC(C)c1cnnc(Nc2ccc3ncc(-c4cnn(CC5CCN(C(=O)N6CCCCC6)CC5)c4)cc3n2)c1` [Example 0533], the IC50 (on human PI3Kα protein; in experiment [1]) was less than 1 µM in each case.

Regarding `CC(C)c1cnnc(Nc2ccc3ncc(-c4cnn(CC5CCN(C(=O)C6CC6)CC5)c4)cc3n2)c1` [Example 0534], the IC50 (on human PI3Kα protein; in experiment [1]) was less than 1 µM in each case.

Take `CC(C)CC(=O)N1CCC(Cn2cc(-c3cnc4ccc(Nc5cc(C(C)C)cnn5)nc4c3)cn2)CC1` [Example 0535]: the IC50 (on human PI3Kα protein; in experiment [1]) was less than 1 µM throughout.

With `CC(C)C(=O)N1CCC(Cn2cc(-c3cnc4ccc(Nc5cc(C(C)C)cnn5)nc4c3)cn2)CC1` [Example 0536], the IC50 (on human PI3Kα protein; in experiment [1]) was less than 1 µM throughout.

For the compound `COCC(=O)N1CCC(Cn2cc(-c3cnc4ccc(Nc5cc(C(C)C)cnn5)nc4c3)cn2)CC1` [Example 0537], the IC50 (at human PI3Kα protein; in experiment [1]) was less than 1 µM each time.

In the case of `CC(C)c1cnnc(Nc2ccc3ncc(-c4cnn(CC5CCN(C(=O)C6CCCCC6)CC5)c4)cc3n2)c1` [Example 0538], the IC50 (on human PI3Kα protein; in experiment [1]) was less than 1 µM in each case.

For the compound `CC(C)c1cnnc(Nc2ccc3ncc(-c4cnn(CC5CCN(C(=O)N6CCCC6)CC5)c4)cc3n2)c1` [Example 0539], the IC50 (on human PI3Kα protein; in experiment [1]) was less than 1 µM each time.

As to `CC(=O)N1CCC(Nc2cnc3ccc(Nc4cc(C(C)C)cnn4)nc3c2)CC1` [Example 0540, 1-(4-((6-((5-Isopropylpyridazin-3-yl)amino)-1,5-naphthyridin-3-yl)amino)piperidin-1-yl)ethanone], the IC50 was less than 1 µM on human PI3Kα protein and 1 to 10 µM in experiment [1].

With `CC(=O)N1CCCC(Nc2cnc3ccc(Nc4cc(C(C)C)cnn4)nc3c2)C1` (stereo not drawn) [Example 0541], the figures for the IC50 (on human PI3Kα protein; in experiment [1]) were less than 1 µM and 1 to 10 µM, respectively.

Take `CCc1cnnc(Nc2ccc3ncc(-c4cn(C)nc4-c4cccnc4)cc3n2)c1` [Example 0542, N-(5-ethylpyridazin-3-yl)-7-(1-methyl-3-(pyridin-3-yl)-1H-pyrazol-4-yl)-1,5-naphthyridine-2-amine]: the IC50 (at human PI3Kα protein; in experiment [1]) was less than 1 µM each time.

For `Cn1cc(-c2cnc3ccc(Nc4cc(C(C)(C)O)cnn4)nc3c2)cn1` [Example 0543, 2-(6-((7-(1-Methyl-1H-pyrazol-4-yl)-1,5-naphthyridin-2-yl)amino)pyridazin-4-yl)propan-2-ol], the IC50 (on human PI3Kα protein; in experiment [1]) was less than 1 µM each time.

In the case of `CC(C)NC(=O)N1CCC(Cn2cc(-c3cnc4ccc(Nc5cc(C(C)C)cnn5)nc4c3)cn2)CC1` [Example 0544], the IC50 (on human PI3Kα protein; in experiment [1]) was less than 1 µM in each case.

With `Cc1nn(C)cc1-c1cnc2ccc(Nc3cc(C(C)(C)O)cnn3)nc2c1` [Example 0547], the IC50 (at human PI3Kα protein; in experiment [1]) was less than 1 µM throughout.

For the compound `CC(=O)N1CCCC(Cn2cc(-c3cnc4ccc(Nc5cc(C(C)C)cnn5)nc4c3)cn2)C1` (stereo not drawn) [Example 0548], the IC50 (at human PI3Kα protein; in experiment [1]) was less than 1 µM in each case.
